The text below walks through data of patent US20020037903A1, “Use of pyrimidine endothelin antagonists in companion animals” (priority 2000, published 2002).

Where two headings read alike, the source gives them in different places.

The test system of series [1] is dog renal artery strips (ET-1-induced contraction). Kind of series: Test A: inhibition of contraction induced by ET-1 in dog renal artery strips to generate Kb values. In kind it is cell-based, beagle dogs. The settings on record: Canis lupus familiaris, 1.25 h, ET-1 contraction, 75 minutes incubation with test compound, single concentration, read-out: Apparent Kb. From the text:
Inhibition of Contraction Induced by ET-1 in Dog Renal Artery Strips to Generate Kb Values
A Kb value is a measure of functional activity, and this is taken to be the free plasma concentration of a test compound required to provide efficacy.
Renal arteries from beagle dogs (body weight 9-15 kg) were cut into spirals and divided into 5 mm long strips. The side of each strip that was adjacent to the lumen of the vessel was gently rubbed to remove the endothelium. […] The tension generated by each strip was recorded isometrically. After incubating the tissues with test compound for 75 minutes, cumulative concentration response curves were constructed to ET-1 in the presence of 10 μM Bestatin, 10 μM Captopril, 10 μM Thiorphan, 50 μM indomethacin and 0.001% BSA. Only a single ET-1 curve was constructed in each tissue and tension increases expressed as a percentage of the response to 120mM KCl determined before the addition of the test compound. […] This is the ratio of the EC50 in the presence of the test compound divided by the EC50 in its absence. The DR is then put into the following equation:
apparent pKb=log(DR−1)−log[B] (where B=molar concentration of test compound)

Series [2] can be described thus: Test B: pharmacokinetic study in the dog, plasma concentrations after i.v. infusion. The settings on record: for Estimated % of Kb at 24 hours following 2.0 mg/kg i.v. dose: 0.5 mg/kg value multiplied by 4; for % of Kb at 24 hours following 0.5 mg/kg i.v. dose: free plasma concentration as percentage of Kb from Test A; for concentration at 24 h: plasma, intravenous, 0.5 mg/kg. It is filed as in vivo. As to the method: In order to assess the potential of test ET antagonists to provide efficacy, a pharmacokinetic study in the dog was carried out.
Blood samples were taken at various time points and centrifuged to provide plasma samples. These samples were analysed using Mass Spectrometry to provide total plasma concentrations.
Total plasma concentrations in the dog were determined by comparison with the standard line constructed (using the spiked plasma samples) to cover the expected concentration range.
(c) Calculation of free plasma concentrations [formula] or % protein bound=(1−Fu)×100
The free plasma concentrations of the compound can then be determined.
Free plasma concentration=total plasma concentration (from method (a))×fraction unbound (from method (b))

Series [3] is described as follows: Test B(b): plasma protein binding by equilibrium dialysis. It is filed as in vitro ADME. To be noted: dog, canine plasma. From the text:
(b) Determination of plasma protein binding by equilibrium dialysis
An example of a method used is described below.
Plasma containing the test compound was placed in a chamber (half-cell), separated by a semi-permeable membrane (Spectra/Por™ 1 47 mm diam MWCO 6-8000) from isotonic buffer at physiological pH in the other half-cell. The system was allowed to equilibrate, such that low molecular weight compounds distributed evenly between the two chambers (plasma and buffer), whilst high molecular weight molecules were restricted to the plasma chamber. At equilibrium the concentration of the unbound test compound is the same on either side of the membrane. The concentration of total test compound in each half-cell was then determined (using essentially the described above) and the extent of plasma protein binding calculated.
The Spectra/Por™ Equilibrium Dialyzer used to determine protein binding was supplied by NBS Biologicals.
Background: In equilibrium dialysis only unbound substance equilibrates across the membrane.

Series [4] deals with ET-1-induced pressor response. Kind of series: Test C: inhibition of ET-1-induced pressor response in conscious beagle dogs. It is filed as in vivo. Here is the method: Inhibition of ET-1-induced Pressor Response in Conscious Beagle Dogs
Studies were performed in surgically prepared conscious beagle dogs (13-17 kg) which were well adjusted to the laboratory environment. Surgical preparation was performed under recovery anaesthesia to insert an indwelling aortic catheter with external access between the scapulae and protruding subcutaneous ECG studs, positioned for the recording of lead 11 electrocardiograms. During studies dogs were placed, unrestrained, in “Pavlov” type slings. The aortic catheter was connected to a pressure transducer for the measurement of systemic arterial pressure and ECG studs, via patient cables, to a bio-amplifier for the recording of electrocardiograms. ET-1 was administered as a 15 min infusion (25 pmoles/kg/min) via a temporary catheter inserted into the saphenous vein. Test compound or placebo was administered by oral gavage (0.5 or 2.0 mg/kg) at 1 and 24 hours prior to the infusion of ET-1. Individual studies investigated no more than a single dose of test compound or placebo at any one time. Systemic arterial pressure and electrocardiograms were recorded for one hour prior to and one hour after the start of the infusion of ET-1. Test compounds were evaluated by comparing the effects of placebo or test compound on the magnitude of pressor response elicited by ET-1.

Series [5] deals with dogs with pacing-induced CHF. Kind of series: Congestive heart failure induced by rapid ventricular pacing in dogs. It is filed as in vivo. Here is the method:
A group of animals receiving ACE-inhibitor treatment served as positive control.
Heart failure was induced by rapid ventricular pacing, which is a well established and extensively documented model It is the only heart failure model that allows control of the degree of heart failure by adjusting the pacing rate.
Dogs were paced throughout the study at pacing rates up to 220-240 bpm leading to steadily progressing CHF.
Group 1: Placebo (Furosemide 4 mg/kg/day BID per os, n=6)
Group 2: ET-receptor antagonist (2 mg/kg/day SID per os+Furosemide as above, n=6)
Group 3: Enalapril maleate (1 mg/kg/day BID per os+Furosemide as above)
(n=6, positive control) was initiated 2 weeks after start of pacing and continued for 3 weeks.
Throughout the study, both clinical parameters (heart murmurs, edema formation, dyspnoe) as well as haemodynamic (CO, blood pressure, cardiac contractility, and heart rate) and humoral parameters (plasma catecholamines, ANF, ET-1) were measured to determine morbidity and quality of life of the animals.
Dosing of the animals during the 3-week treatment period took place BID@8 am and 4 pm:
Improvement in cardiac function is illustrated by the effect of Compound X on the left ventricular enddiastolic pressure (LVEDP) in resting dogs before and during progressive CHF induced by pacing at […]. Test compounds were given for 3 weeks while pacing continued. In the graph below, the Y-axis is LVEDP in mm, and the X-axis is the time in weeks. […] [In the study, 5 dogs were treated with placebo, 3 dogs were treated with enalapril, and 5 dogs were treated with Compound X] [drawing 5]
Dogs were paced for 2 weeks to develop CHF and then assigned to oral gavage treatment with either placebo (vehicle), Compound X (2 mg/kg/day, sid), or enalapril (1 mg/kg/day, bid). In addition, all animals received the diuretic furosemide (4 mg/kg/day, bid) throughout treatment period. During the 3-week treatment period, rapid ventricular pacing was continued. Pacing led to deterioration of myocardial and circulatory function with progression of CHF as indicated by increases in left ventricular enddiastolic pressure (LVEDP) and reductions of cardiac contractility and output. In addition, all animals were assessed for clinical parameters of CHF by an independent veterinarian.
Throughout the study dogs were studied twice weekly at rest and during standardised exercise on a treadmill at two different speeds.

The test system of another series is ETA/B receptor. The settings on record: hypertensive patients; cited from earlier work.
The subject of the next series is heart disease in dogs. The settings on record: veterinary clinical trial, dogs with heart disease; cited from earlier work.
For a further series, the target named is T1, ETB receptors (Homo sapiens, UniProt P24530).
T1 construct: host or cells: man (in vivo)
T1 sequence (P24530 27-442): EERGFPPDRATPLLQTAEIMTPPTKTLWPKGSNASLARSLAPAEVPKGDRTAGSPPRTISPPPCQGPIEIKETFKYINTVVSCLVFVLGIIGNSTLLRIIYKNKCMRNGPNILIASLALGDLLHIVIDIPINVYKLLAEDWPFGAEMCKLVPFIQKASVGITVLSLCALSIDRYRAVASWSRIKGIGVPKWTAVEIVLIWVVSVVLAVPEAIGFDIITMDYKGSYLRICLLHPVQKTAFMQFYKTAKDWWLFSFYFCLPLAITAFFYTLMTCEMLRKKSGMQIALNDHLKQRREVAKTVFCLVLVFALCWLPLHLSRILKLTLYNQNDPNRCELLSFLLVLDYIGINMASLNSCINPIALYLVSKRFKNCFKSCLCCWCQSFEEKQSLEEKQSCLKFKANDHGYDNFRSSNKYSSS
To be noted: in man; cited from earlier work.

In a further series the test system is neointimal formation. To be noted: after balloon angioplasty; cited from earlier work.
Setting [6] is: 0.5 mg/kg i.v. infusion over 10 minutes, read-out: Total plasma concentration at 24 hours following 0.5 mg/kg iv dose.
Where [7] appears, read: total plasma concentration x fraction unbound, read-out: Free concentration at 24 hours following 0.5 mg/kg i.v. dose.
Setting [8] is: 2 mg/kg/day sid p.o. plus furosemide, 3 weeks.

The fraction unbound is free concentration divided by total concentration. Lower therefore signals little free substance. As a reminder, the inhibition is how much of the control response was suppressed. Lower therefore signals a weak effect. As for `COc1ccccc1Oc1c(NS(=O)(=O)CCc2ccccc2)nc(-c2ncccn2)nc1OC` [Compound X, N-[6-methoxy-5-(2-methoxyphenoxy)-2-(2-pyrimidinyl)-4-pyrimidinyl]-2-phenylethansulphonamide], in series [1], the Kb came to 0.086 µM. Besides, in [2], the “Estimated % of Kb at 24 hours following 2.0 mg/kg i.v. dose” value (“Estimated % of Kb” below) is given as 196% and the “% of Kb at 24 hours following 0.5 mg/kg i.v. dose” value worked out at 49%. Further, the concentration at 24 h in series [2] (setting [6]) amounted to 466 nM. For the same molecule, in [2] (setting [7]), the concentration at 24 h is 41.9 nM. This molecule also showed a fraction unbound in [3] of 0.09. The “Change in arterial pressure elicited by ET-1” value in series [4] (0.5 mg/kg p.o., 1 hour prior to ET-1 infusion) was 3 ΔmmHg. The “Change in arterial pressure elicited by ET-1” value in series [4] (2.0 mg/kg p.o., 24 hours prior to ET-1 infusion) is recorded as 3 ΔmmHg. In series [4] (Canis lupus familiaris, po, 0.5 mg/kg p.o., 1 hour prior to ET-1 infusion), this molecule came in with an inhibition at 0.5 mg/kg of 76%. In addition, the inhibition at 2 mg/kg in series [4] (Canis lupus familiaris, po, 2.0 mg/kg p.o., 24 hours prior to ET-1 infusion) came to 80%. Besides, in series [5] (setting [8]), the “Arterial blood pressure (BP)” value is reported as “lower arterial blood pressure”; the Cardiac output result is recorded as “maintained or even increased cardiac output”; the “LVEDP at rest and during treadmill exercise” value is “significantly improved LVEDP not only under resting conditions but even more so during treadmill exercise”; the “LVEDP relative to pre-treatment values” is listed as “lowered LVEDP below pre-treatment values”. Also, in series [5] (2 mg/kg/day sid p.o. plus furosemide, 3 weeks, pacing 210-240 bpm, versus placebo and enalapril), the “Left ventricular enddiastolic pressure (LVEDP) in resting dogs” value was “Significant improvements over both placebo and enalapril”. The Exercise tolerance result in series [5] (all treated animals, placebo group three out of six developed exercise intolerance) was “maintained exercise tolerance throughout the study”. Moreover, the “Heart failure class, NYHA scale (I-IV)” value in series [5] (all treated animals, placebo group three out of six reached class III) is reported as “class II”.
In the case of `COc1ccccc1Oc1c(NS(=O)(=O)c2ccc(C(C)(C)C)cc2)nc(-c2ncccn2)nc1OCCO` [Bosentan], in the series with ETA/B receptor, the “Effect on blood pressure” value is “decreased blood pressure”.
Regarding `CCOC(=O)[C@H](CCc1ccccc1)N[C@@H](C)C(=O)N1CCC[C@H]1C(=O)O` [enalapril], in the series on heart disease in dogs, the Cardiac function result is recorded as “did not improve cardiac function” and the Disease progression result was “significant slow down in disease progression”.
As to `COc1cc(OC)nc(O[C@H](C(=O)O)C(OC)(c2ccccc2)c2ccccc2)n1` [LU 135,252], the Kb in series [1] is 0.111 µM. In addition, in series [2], the “Estimated % of Kb” value is recorded as 4.8% and the “% of Kb at 24 hours following 0.5 mg/kg i.v. dose” value is on record as 1.2%. Further, in series [2] (setting [6]), the concentration at 24 h turned out to be 40 nM. Also, the concentration at 24 h in [2] (setting [7]) was 1.3 nM. Further, the fraction unbound in series [3] is 0.032.
For the molecule `CCCC[C@@H](NC(=O)[C@@H](Cc1cn(C(=O)OC)c2ccccc12)NC(=O)[C@H](CC(C)(C)C)NC(=O)N1[C@H](C)CCC[C@@H]1C)C(=O)O` [BQ-788], the “Effect on peripheral resistance” value at ETB receptors is reported as “increase peripheral resistance”.
With `CCCOc1ccc2c(c1)[C@@H](c1ccc(OC)cc1OCC(=O)O)[C@H](C(=O)O)[C@H]2c1ccc2c(c1)OCO2` [SB-209670], the “Reduction in neointimal formation relative to control animals” value in the series with neointimal formation was 50%.
For the molecule `COCCOc1nc(-c2ncccn2)nc(NS(=O)(=O)CCc2ccccc2)c1Oc1ccccc1OC` [Example 2, WO 98/57938], the Kb in series [1] worked out at 0.136 µM. Also, in series [2], the “Estimated % of Kb” value is on record as less than 32%. In addition, the “% of Kb at 24 hours following 0.5 mg/kg i.v. dose” value in series [2] was less than 8%. Further, the concentration at 24 h in [2] (setting [6]) is less than 93 nM; in series [2] (setting [7]), less than 11 nM. Besides, in [3], the free fraction (fraction unbound) is 0.12.
